Measured values published in PubChem BioAssay AID248 (DTP/NCI, 2004).
Where “and” joins values, the source holds several entries; their conditions need not be identical. Identical values can stand only once. Toxic doses and inconclusive results are not listed.

System: L1210 leukemia ip in BDF1 mice, survival T/C
Test: NCI In Vivo Anticancer Drug Screen. Data for tumor model L1210 Leukemia (intraperitoneal) in B6D2F1 (BDF1) mice
Conditions: higher = longer survival
How it was run: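 Tumor cells were implanted, animals were treated, and survival was followed. The result divides the treated measurement by the vehicle-control measurement.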

[1] = endpoint: mean survival time, dose: 100.0 mg/kg/injection, schedule: Q01DX001 (ip), vehicle: carboxymethylcellulose (CMC)
[2] = endpoint: mean survival time, dose: 100.0 mg/kg/injection, schedule: Q01DX001 (ip), vehicle: saline
[3] = endpoint: mean survival time, dose: 200.0 mg/kg/injection, schedule: Q01DX001 (ip), vehicle: carboxymethylcellulose (CMC)
[4] = endpoint: mean survival time, dose: 200.0 mg/kg/injection, schedule: Q01DX001 (ip), vehicle: saline
[5] = endpoint: mean survival time, dose: 400.0 mg/kg/injection, schedule: Q01DX001 (ip), vehicle: saline
[6] = endpoint: mean survival time, dose: 100.0 mg/kg/injection, schedule: Q04DX003 (ip), vehicle: Klucel (hydroxypropylcellulose) (HPC)
[7] = endpoint: mean survival time, dose: 200.0 mg/kg/injection, schedule: Q04DX003 (ip), vehicle: Klucel (hydroxypropylcellulose) (HPC)
[8] = endpoint: mean survival time, dose: 400.0 mg/kg/injection, schedule: Q04DX003 (ip), vehicle: Klucel (hydroxypropylcellulose) (HPC)
[9] = endpoint: mean survival time, dose: 100.0 mg/kg/injection, schedule: Q01DX009 (ip), vehicle: Klucel (hydroxypropylcellulose) (HPC)
[10] = endpoint: mean survival time, dose: 200.0 mg/kg/injection, schedule: Q01DX009 (ip), vehicle: Klucel (hydroxypropylcellulose) (HPC)
[11] = endpoint: mean survival time, dose: 50.0 mg/kg/injection, schedule: Q01DX009 (ip), vehicle: Klucel (hydroxypropylcellulose) (HPC)
[12] = endpoint: mean survival time, dose: 100.0 mg/kg/injection, schedule: Q04DX003 (ip), vehicle: saline with Tween-80
[13] = endpoint: mean survival time, dose: 200.0 mg/kg/injection, schedule: Q04DX003 (ip), vehicle: saline with Tween-80
[14] = endpoint: mean survival time, dose: 400.0 mg/kg/injection, schedule: Q04DX003 (ip), vehicle: saline with Tween-80
[15] = endpoint: mean survival time, dose: 100.0 mg/kg/injection, schedule: Q04DX002 (ip), vehicle: Klucel (hydroxypropylcellulose) (HPC)
[16] = endpoint: mean survival time, dose: 200.0 mg/kg/injection, schedule: Q04DX002 (ip), vehicle: Klucel (hydroxypropylcellulose) (HPC)
[17] = endpoint: mean survival time, dose: 400.0 mg/kg/injection, schedule: Q01DX001 (ip), vehicle: carboxymethylcellulose (CMC)

Nc1[nH]c(=O)ncc1F
T/C [1]: 97 % of control | T/C [2]: 102 % of control | T/C (endpoint: mean survival time, dose: 100.0 mg/kg/injection, schedule: Q01DX009 (ip), vehicle: carboxymethylcellulose (CMC)): 98 % of control | T/C [3]: 104 % of control | T/C [4]: 102 % of control | T/C (endpoint: mean survival time, dose: 200.0 mg/kg/injection, schedule: Q01DX009 (ip), vehicle: carboxymethylcellulose (CMC)): 103 % of control | T/C [5]: 100 % of control | T/C (endpoint: mean survival time, dose: 400.0 mg/kg/injection, schedule: Q01DX009 (ip), vehicle: carboxymethylcellulose (CMC)): 103 % of control | T/C (endpoint: mean survival time, dose: 800.0 mg/kg/injection, schedule: Q01DX001 (ip), vehicle: saline): 102 % of control | T/C (endpoint: mean survival time, dose: 800.0 mg/kg/injection, schedule: Q01DX009 (ip), vehicle: carboxymethylcellulose (CMC)): 104 % of control | T/C (endpoint: median survival time, dose: 31.2 mg/kg/injection, schedule: Q03HX024 (ip), vehicle: water): 100 % of control | T/C (endpoint: median survival time, dose: 62.5 mg/kg/injection, schedule: Q03HX024 (ip), vehicle: water): 100 % of control | T/C (endpoint: median survival time, dose: 125.0 mg/kg/injection, schedule: Q03HX024 (ip), vehicle: water): 100 % of control | T/C (endpoint: median survival time, dose: 250.0 mg/kg/injection, schedule: Q03HX024 (ip), vehicle: water): 105 % of control | T/C (endpoint: median survival time, dose: 250.0 mg/kg/injection, schedule: Q04DX003 (ip), vehicle: water): 100 % of control | T/C (endpoint: median survival time, dose: 500.0 mg/kg/injection, schedule: Q04DX003 (ip), vehicle: water): 100 % of control | T/C (endpoint: median survival time, dose: 1000.0 mg/kg/injection, schedule: Q04DX003 (ip), vehicle: water): 100 % of control

CCOC(=O)C(C)Oc1ccc([N+](=O)[O-])cc1[N+](=O)[O-] (stereo not drawn)
T/C [6]: 95 % of control | T/C [7]: 90 % of control | T/C [8]: 98 % of control

CCCCCC1SC1CC1SC1CCCCCCCC(=O)N(CCCC)CCCC (stereo not drawn)
T/C (endpoint: mean survival time, dose: 30.0 mg/kg/injection, schedule: Q01DX001 (ip), vehicle: saline): 102 % of control | T/C [2]: 96 % of control | T/C (endpoint: mean survival time, dose: 300.0 mg/kg/injection, schedule: Q01DX001 (ip), vehicle: saline): 89 % of control

CCCCCCCCCCCCCCC(CCCCCCCCCCCCCC)C1CCCCC1
T/C (endpoint: mean survival time, dose: 100.0 mg/kg/injection, schedule: Q01DX001 (ip), vehicle: saline with Tween-80): 92 % of control | T/C (endpoint: mean survival time, dose: 200.0 mg/kg/injection, schedule: Q01DX001 (ip), vehicle: saline with Tween-80): 95 % of control | T/C (endpoint: mean survival time, dose: 400.0 mg/kg/injection, schedule: Q01DX001 (ip), vehicle: saline with Tween-80): 94 % of control

COC(=O)CCCCCCCCCC(=O)OC
T/C (endpoint: mean survival time, dose: 100.0 mg/kg/injection, schedule: Q01DX001 (ip), vehicle: Klucel (hydroxypropylcellulose) (HPC)): 100 % of control | T/C [9]: 97 % of control | T/C (endpoint: mean survival time, dose: 200.0 mg/kg/injection, schedule: Q01DX001 (ip), vehicle: Klucel (hydroxypropylcellulose) (HPC)): 101 % of control | T/C [10]: 96 % of control | T/C (endpoint: mean survival time, dose: 400.0 mg/kg/injection, schedule: Q01DX001 (ip), vehicle: Klucel (hydroxypropylcellulose) (HPC)): 95 % of control | T/C (endpoint: mean survival time, dose: 400.0 mg/kg/injection, schedule: Q01DX009 (ip), vehicle: Klucel (hydroxypropylcellulose) (HPC)): 94 % of control

Cn1nc(NC(=O)C(C)(C)C)c(C#N)c1C#N
T/C (endpoint: mean survival time, dose: 50.0 mg/kg/injection, schedule: Q04DX002 (ip), vehicle: saline with Tween-80): 95 % of control | T/C (endpoint: mean survival time, dose: 100.0 mg/kg/injection, schedule: Q04DX002 (ip), vehicle: saline with Tween-80): 95 % of control | T/C (endpoint: mean survival time, dose: 200.0 mg/kg/injection, schedule: Q04DX002 (ip), vehicle: saline with Tween-80): 98 % of control

COC(=O)c1nccnc1N
T/C [11]: 94 % of control | T/C (endpoint: mean survival time, dose: 75.0 mg/kg/injection, schedule: Q01DX001 (ip), vehicle: alcohol): 108 % of control | T/C [9]: 97 % of control | T/C [6]: 94 % of control | T/C (endpoint: mean survival time, dose: 150.0 mg/kg/injection, schedule: Q01DX001 (ip), vehicle: alcohol): 105 % of control | T/C [10]: 108 % of control | T/C [7]: 92 % of control | T/C (endpoint: mean survival time, dose: 300.0 mg/kg/injection, schedule: Q01DX001 (ip), vehicle: alcohol): 100 % of control | T/C [8]: 95 % of control

Cn1c(=S)sc2cc(Cl)ccc21
T/C [12]: 104 % of control | T/C [13]: 101 % of control | T/C [14]: 98 % of control

CCCCOP(=O)(OCCCC)C(=O)N(CC)CC
T/C [6]: 112 % of control | T/C [7]: 101 % of control | T/C [8]: 93 % of control

CCCCCCCCCCCCCCCCNC(=S)N/N=C(/C=C/c1ccccc1)C(=O)O
T/C (endpoint: mean survival time, dose: 15.0 mg/kg/injection, schedule: Q01DX Z (ip), vehicle: carboxymethylcellulose (CMC)): 101 % of control | T/C (endpoint: mean survival time, dose: 30.0 mg/kg/injection, schedule: Q01DX Z (ip), vehicle: carboxymethylcellulose (CMC)): 108 % of control | T/C (endpoint: mean survival time, dose: 30.0 mg/kg/injection, schedule: Q01DX Z (oral), vehicle: carboxymethylcellulose (CMC)): 112 % of control | T/C (endpoint: mean survival time, dose: 60.0 mg/kg/injection, schedule: Q01DX Z (ip), vehicle: carboxymethylcellulose (CMC)): 113 % of control | T/C (endpoint: mean survival time, dose: 60.0 mg/kg/injection, schedule: Q01DX Z (oral), vehicle: carboxymethylcellulose (CMC)): 111 % of control | T/C (endpoint: mean survival time, dose: 120.0 mg/kg/injection, schedule: Q01DX Z (oral), vehicle: carboxymethylcellulose (CMC)): 100 % of control and 101 % of control | T/C (endpoint: mean survival time, dose: 240.0 mg/kg/injection, schedule: Q01DX Z (oral), vehicle: carboxymethylcellulose (CMC)): 108 % of control and 109 % of control | T/C (endpoint: mean survival time, dose: 480.0 mg/kg/injection, schedule: Q01DX Z (oral), vehicle: carboxymethylcellulose (CMC)): 109 % of control | T/C (endpoint: mean survival time, dose: 960.0 mg/kg/injection, schedule: Q01DX Z (oral), vehicle: carboxymethylcellulose (CMC)): 113 % of control

S=P(N1CC1)(N1CC1)N1CC1.[Cl-].[Cl-].[NH2-].[NH2-].[Pt+4]
T/C (endpoint: mean survival time, dose: 1.8 mg/kg/injection, schedule: Q01DX009 (ip), vehicle: saline): 111 % of control and 103 % of control and 101 % of control | T/C (endpoint: mean survival time, dose: 2.7 mg/kg/injection, schedule: Q01DX009 (ip), vehicle: saline): 111 % of control and 116 % of control | T/C (endpoint: mean survival time, dose: 3.13 mg/kg/injection, schedule: Q01DX009 (ip), vehicle: Klucel (hydroxypropylcellulose) (HPC)): 150 % of control and 152 % of control | T/C (endpoint: mean survival time, dose: 4.1 mg/kg/injection, schedule: Q01DX009 (ip), vehicle: saline): 164 % of control [middle of 5 runs] | T/C (endpoint: mean survival time, dose: 6.25 mg/kg/injection, schedule: Q01DX009 (ip), vehicle: Klucel (hydroxypropylcellulose) (HPC)): 211 % of control and 166 % of control and 227 % of control | T/C (endpoint: mean survival time, dose: 6.25 mg/kg/injection, schedule: Q01DX009 (ip), vehicle: saline): 233 % of control [middle of 4 runs] | T/C (endpoint: mean survival time, dose: 9.3 mg/kg/injection, schedule: Q01DX009 (ip), vehicle: saline): 200 % of control and 277 % of control | T/C (endpoint: mean survival time, dose: 12.5 mg/kg/injection, schedule: Q01DX009 (ip), vehicle: Klucel (hydroxypropylcellulose) (HPC)): 105 % of control and 92 % of control and 91 % of control | T/C (endpoint: mean survival time, dose: 12.5 mg/kg/injection, schedule: Q01DX009 (ip), vehicle: saline): 98 % of control and 103 % of control

NCc1c(Cl)cccc1[N+](=O)[O-]
T/C [11]: 96 % of control and 108 % of control | T/C [9]: 96 % of control and 99 % of control and 101 % of control | T/C [15]: 105 % of control | T/C (endpoint: mean survival time, dose: 100.0 mg/kg/injection, schedule: Q04DX002 (ip), vehicle: saline): 102 % of control | T/C [10]: 94 % of control and 104 % of control and 110 % of control | T/C [16]: 100 % of control | T/C (endpoint: mean survival time, dose: 200.0 mg/kg/injection, schedule: Q04DX002 (ip), vehicle: saline): 94 % of control

Oc1ccc(N=Cc2ccccc2)cc1
T/C (endpoint: mean survival time, dose: 100.0 mg/kg/injection, schedule: Q04DX002 (ip), vehicle: gum acacia): 98 % of control | T/C (endpoint: mean survival time, dose: 200.0 mg/kg/injection, schedule: Q04DX002 (ip), vehicle: gum acacia): 109 % of control | T/C (endpoint: mean survival time, dose: 400.0 mg/kg/injection, schedule: Q04DX002 (ip), vehicle: gum acacia): 106 % of control

Oc1cccc2c1ccc1ccc3ccccc3c12
T/C [12]: 92 % of control | T/C [13]: 95 % of control | T/C [14]: 90 % of control

Nc1ccc(Nc2ccccc2)cc1
T/C [15]: 100 % of control | T/C [16]: 104 % of control

O=C(O)C1OC(n2cc(F)c(=O)[nH]c2=O)CC1O (stereo not drawn)
T/C (endpoint: mean survival time, dose: 50.0 mg/kg/injection, schedule: Q01DX001 (ip), vehicle: saline): 101 % of control | T/C [2]: 101 % of control | T/C [4]: 98 % of control | T/C [5]: 110 % of control

O=C1NC(=O)C(c2ccsc2)(c2cccs2)N1 (stereo not drawn)
T/C [1]: 97 % of control | T/C [3]: 89 % of control | T/C [17]: 100 % of control

CC1(C)OCC(C2OC3OC(C)(C)OC3C2OS(C)(=O)=O)O1 (stereo not drawn)
T/C [1]: 101 % of control | T/C [3]: 103 % of control | T/C [17]: 97 % of control
